According to US20230227547A1, “ANTIBODY-PAYLOAD CONJUGATES WITH ENHANCED DELIVERY DOMAIN AND USES THEREOF” (IPROGEN BIOTECH INC., priority 2019, published 2023):

How the values were obtained:
LnCap = experiment: Delivery assay, Goat anti-human IgG-AlexaFluor 488 fluorescence microscopy, LnCap; type: cell-based; set-up: key to Delivery efficiency of mAb (i.e., mAb): +++: Strong Alexa Fluor 488 (cyan/green) fluorescent intensity; ++: Medium level of Alexa Fluor 488 (cyan/green) fluorescent intensity; +: Weak, but noticeable Alexa Fluor 488 (cyan/green) fluorescent intensity; -: No signal; settings: Target cell LnCap; for Delivery efficiency of mAb (i.e., mAb): 100 nM, 3 hours; for Delivery enhancement: mAb-LL37 vs mAb
Description: Delivery assay. […] The culturing media containing the unbound antibodies were removed, and the MDA-MB-468 cells were washed with PBS. The adherent cells were treated with trypsin at 37 degree C for 1-2 minutes, neutralized in FACS buffer (2% v/v FBS, 2 mM EDTA, 0.05% w/v sodium azide in PBS), and transferred to FACS tubes on ice. The delivery of antibodies to cells was quantitated by measuring the red fluorescence intensity (i.e., PE-Texas Red color channel in the FACS detector) emitted fromZ-RFP bound to antibody. […] At the end of incubation, the adherent target cells were washed twice with ice-cold PBS, fixed with 2% (w/v) formaldehyde in PBS at room temperature for 15 minutes, and washed twice with PBS at room temperature. The fixed adherent target cells were then permeabilized with 0.05% (v/v) Tween-20 in PBS at room temperature for 15 minutes. The permeabilized cells were then incubated with 5% (v/v) FBS, 0.05% (v/v) Tween-20 in PBS at 37 degree Celsius incubator for 30 minutes. The secondary antibody, Goat anti-human IgG-AlexaFluor 488, was added to 5 ug/ml in 5% (v/v) FBS, 0.05% (v/v) Tween-20 in PBS, and incubated with the treated target cells at 37 degree Celsius incubator for 30 minutes. After incubation, the labelled cells were washed twice with PBS, and stored in storage buffer [5% (v/v) FBS in PBS] at 4 degree Celsius until fluorescence microscope imaging. The delivery of mAb and mAb-LL37 were determined qualitatively by estimating the green fluorescence intensity emitted from the AlexFluor488-labelled secondary antibody bound to mAb or mAb-LL37. […] However, Ramos [NT] No. ATCC CRL-1596, lot#70016960) was grown in suspension culture (i.e., in contrast to adherent cells), and the modification to the methods involves simply harvesting cells from the shaking culture flask for incubation with antibodies (or LL37-linked antibodies), and frequently pelleting down the target cells in the V-bottom 96-well polypropylene plate for downstream processes of PBS washing, fixing, permeabilizing, blocking, and the secondary antibody labelling. The secondary anti-human IgG-AlexaFluor488 labelled target cells were washed and resuspended in PBS, and transferred to the clear polystyrene 48-well plates for fluorescence microscope imaging.

T47D cells [1] = experiment: Anti-HER2 mAb delivery efficiency using LL37-derived peptide constructs; type: cell-based, human; settings: peptide conjugated to anti-HER2 mAb light chain, 100 nM Ab, Z-GFP (PEP#6, 35-43) or Goat anti-human IgG-AlexaFluor 488 (PEP#6, 47-94) fluorescence microscopy
Description: LL37 and LL37-derived peptides were produced synthetically with two additional N-terminal glycine residues (e.g. as shown in SEQ ID NO:2 compared to SEQ ID NO: 1) to enable the sortase reaction. The LL37-derived peptides (PEP#35 to #43, SEQ ID NOs: 13-21) were all dissolved at 10 mg/ml in phosphate buffer saline (PBS) at room temperature, sterile-filtered, and stored at -20° C. freezer. PEP#48 (SEQ ID: 74), PEP#49 (SEQ ID No: 75), and PEP#60 (SEQ ID NO: 105) were dissolved in 20% (v/v) acetonitrile in PBS. PEP#47 (SEQ ID NO: 96), PEP#86 (SEQ ID NO: 78), PEP#98 (SEQ ID NO: 79), PEP#99 (SEQ ID NO: 80), PEP#102 (SEQ ID NO: 82), and PEP#104 (SEQ ID NO: 84) were dissolved in DMSO. PEP#50 (SEQ ID No: 76), PEP#51 (SEQ ID No: 97), PEP#55 (SEQ ID No: 77), PEP#58 (SEQ ID No: 103), PEP#59 (SEQ ID No: 104), PEP#61 (SEQ ID No: 106), PEP#62 (SEQ ID No: 107), PEP#63 (SEQ ID No: 108), PEP#64 (SEQ ID No: 109), PEP#66 (SEQ ID No: 110), and PEP#94 (SEQ ID No: 35) were all dissolved in PBS. […] The reaction was incubated inside a 37° C. incubator for 16 hours, and then EDTA (pH 7.5) was added to 10 mM in the reaction mixture to chelate calcium and stop the reaction.
Delivery assay: The following delivery assay method was used on the anti-HER2 mAbs conjugated to the PEP#6, #35, #36, #37, #38, #39, #40, #41, #42, and #43 described in Table 7. […] The plates were then removed from the incubator, and the culturing media was removed from the adherent cells. The adherent cells were washed gently with an equal volume of ice-cold PBS. Then, the PBS wash was replaced 250 µl of fresh PBS for fluorescence microscope imaging.
At the end of incubation, the adherent target cells were washed twice with ice-cold PBS, fixed with 2% (w/v) formaldehyde in PBS at room temperature for 15 minutes, and washed twice with PBS at room temperature. The fixed adherent target cells were then permeabilized with 0.05% (v/v) Tween-20 in PBS at room temperature for 15 minutes. The permeabilized cells were then incubated with 5% (v/v) FBS, 0.05% (v/v) Tween-20 in PBS at 37 degree Celsius incubator for 30 minutes. The secondary antibody, Goat anti-human IgG-AlexaFluor 488, was added to 5 ug/ml in 5% (v/v) FBS, 0.05% (v/v) Tween-20 in PBS, and incubated with the treated target cells at 37 degree Celsius incubator for 30 minutes. After incubation, the labelled cells were washed twice with PBS, and stored in storage buffer [5% (v/v) FBS in PBS] at 4 degree Celsius until fluorescence microscope imaging. The delivery of mAb and mAb-LL37-derived peptides were determined qualitatively by estimating the green fluorescence intensity emitted from the AlexFluor488-labelled secondary antibody bound to mAb or mAb-LL37-derived peptides.

Ramos = experiment: Delivery assay, Goat anti-human IgG-AlexaFluor 488 fluorescence microscopy, Ramos; type: cell-based; set-up: key to Delivery efficiency of mAb (i.e., mAb): +++: Strong Alexa Fluor 488 (cyan/green) fluorescent intensity; ++: Medium level of Alexa Fluor 488 (cyan/green) fluorescent intensity; +: Weak, but noticeable Alexa Fluor 488 (cyan/green) fluorescent intensity; -: No signal
Description: Delivery assay. […] The culturing media containing the unbound antibodies were removed, and the MDA-MB-468 cells were washed with PBS. The adherent cells were treated with trypsin at 37 degree C for 1-2 minutes, neutralized in FACS buffer (2% v/v FBS, 2 mM EDTA, 0.05% w/v sodium azide in PBS), and transferred to FACS tubes on ice. The delivery of antibodies to cells was quantitated by measuring the red fluorescence intensity (i.e., PE-Texas Red color channel in the FACS detector) emitted fromZ-RFP bound to antibody. […] At the end of incubation, the adherent target cells were washed twice with ice-cold PBS, fixed with 2% (w/v) formaldehyde in PBS at room temperature for 15 minutes, and washed twice with PBS at room temperature. […] After incubation, the labelled cells were washed twice with PBS, and stored in storage buffer [5% (v/v) FBS in PBS] at 4 degree Celsius until fluorescence microscope imaging. The delivery of mAb and mAb-LL37 were determined qualitatively by estimating the green fluorescence intensity emitted from the AlexFluor488-labelled secondary antibody bound to mAb or mAb-LL37. […] The secondary anti-human IgG-AlexaFluor488 labelled target cells were washed and resuspended in PBS, and transferred to the clear polystyrene 48-well plates for fluorescence microscope imaging.

T47D cells [2] = experiment: Cell viability assay with XTT, T47D; type: cell-based, human; settings: XTT (Taxol ADCs: 3 hours)
Description: The cell assay was done by treating/incubating the T47D cells with antibody drug conjugates for 3 hours in the 37 degree C tissue culture incubator. After treatment, cell viability was determined by XTT assay as described above.
(§1) After treatment, cell viability was determined by XTT assay as described above.

[3] = tested on: CD3-positive Jurkat cells; experiment: Delivery assay, Z-RFP FACS, Jurkat cells; type: cell-based, human; settings: 1 nM, 10 nM, 100 nM; 30 minutes
Description: For FIG. 30 Panel E, Foralumab-LL37 was made from Foralumab (SEQ ID NOs: 129 and 130) in a sortase-catalyzed reaction to GG-LL37 peptide (SEQ ID NO: 2), and purified on Protein A chromatography. For cell delivery assay, Foralumab/Foralumab-LL37 and equimolar number of Z-RFP were added to Jurkat cells at described final concentration (i.e, 1 nM, 10 nM, and 100 nM) and incubated for 30 minutes. The liquid suspension culture was gently spun in a microcentrifuge at 2000 rpm for 4 minutes, and the clear supernatant was removed, and the cell pellet was washed in PBS and resuspended in FACS buffer (1XPBS, 2% FBS, 1 mM EDTA, 0.02% sodium azide) for analysis by FACS (Texas Red channel).

CD20-positive RL cells = experiment: Delivery assay, Z-RFP FACS, RL cells; type: cell-based, human; settings: 0.5 nM, 5 nM, 50 nM; 30 minutes
Description: For FIG. 30 Panel D, Ofatumumab-LL37 was made from Ofatumumab (SEQ ID NOs: 40 and 41) in a sortase-catalyzed reaction to GG-LL37 peptide (SEQ ID NO: 2), and purified on Protein A chromatography. For cell delivery assay, Ofatumumab/Ofatumumab-LL37 and equimolar equimolar number of Z-RFP were added to RL cells at described final concentration (i.e., 0.5 nM, 5 nM, and 50 nM) and incubated for 30 minutes. The liquid suspension culture was gently spun in a microcentrifuge at 2000 rpm for 4 minutes, and the clear supernatant was removed, and the cell pellet was washed in PBS and resuspended in FACS buffer (1XPBS, 2% FBS, 1 mM EDTA, 0.02% sodium azide) for analysis by FACS (Texas Red channel).

RT4V6 cells = experiment: Cell viability assay with XTT, RT4V6; type: cell-based, human; settings: 72 hours treatment
Description: Cell viability assay with XTT. On day 1, cells (RT4V6, Neuro2A) were seeded at about 0.02 to 0.025 million cells per ml concentration and incubated overnight in the 37° C. incubator. […] XTT and PMS solutions were freshly prepared immediately before the assay, and were used right away. XTT/PMS were added to the treated cells to start the XTT reaction. […] Spectral absorbance was measured at 475 nm (XTT) and 660 nm (background), and viability calculated from the spectral absorbance difference at 475 nm and 660 nm.
Cell assay was done by treating/incubating the RT4V6 cells with antibody drug conjugates for 72 hours in the 37 degree C tissue culture incubator. After treatment, cell viability was determined by XTT assay as described above.
The cell assay was done by treating/incubating the RT4V6 cells with antibody drug conjugates for 72 hours in the 37 degree C tissue culture incubator. After treatment, cell viability was determined by XTT assay as described above.
as §1
(§2) Cell viability assay with XTT. […] After treatment, cell viability was determined by XTT assay as described above.

OVCAR3 cells = experiment: Cell viability assay with XTT, OVCAR3; type: cell-based, human; settings: 72 hours (FIG. 10: 24 hours) treatment
Description: Cell viability assay with XTT. On day 1, cells (OVCAR3) were seeded at about 0.02 to 0.025 million cells per ml concentration and incubated overnight in the 37 degree Celsius incubator. […] One set was incubated for 24 hours, and another set for 72 hours. On day 3, the set with 24 hours, the treatment were removed, and replaced with fresh growth media, and continued incubation for the next 48 hours (for the total of 72 hours). On day 5, the set with both 24 hours and 72 hours treatments were analyzed. […] XTT and PMS solutions were freshly prepared immediately before the assay, and were used right away. XTT/PMS were added to the treated cells to start the XTT reaction. […] Spectral absorbance was measured at 475 nm (XTT) and 660 nm (background), and viability calculated from the spectral absorbance difference at 475 nm and 660 nm.
The cell assay was done by treating/incubating the OVCAR3 cells with antibody drug conjugates for 3 hours in the 37 degree C tissue culture incubator. After treatment, cell viability was determined by XTT assay as described above.
as §1
Cell viability assay was carried out with XTT as as described above.
as §2

Substance: Anti-PSMA, hj591: Anti-PSMA mAb, SEQ ID NOs: 66 and 68
- Delivery efficiency of mAb (i.e., mAb) (LnCap): ++
- Delivery enhancement (LnCap): YES
- Delivery enhancement (LnCap; listed as hj591): greatly enhances the delivery

Substance: KSKEKIGKEFKRIVQ [PEP#42]
- Delivery efficiency (T47D cells [1]): +

Substance: Rituximab [Anti-CD20, Rituximab]
- Delivery efficiency of mAb (i.e., mAb) (Ramos; Target cell Ramos (suspension culture)): ++
- Delivery enhancement (Ramos; Target cell Ramos, mAb-LL37 vs mAb): YES

Substance: IGKEFKRIVQRIKDFLRNLVPRTES [PEP#36]
- Delivery efficiency (T47D cells [1]): ++ (Solid enhancement in delivery, but at lower efficiency than LL37)
- killing of T47D / cell viability (in words) (T47D cells [2]): enhanced the anti-HER2 mAb-MMAE drug conjugate to kill T47D cells

Substance: LLGDFFRKSKEKIGKEFKRIVQRIK [PEP#35]
- Delivery efficiency (T47D cells [1]): +

Substance: Foralumab-LL37
- targeted delivery (in words) [3]: more efficient than anti-CD3e mAb (i.e., Foralumab) at targeted delivery

Substance: Ofatumumab-LL37
- targeted delivery (in words) (CD20-positive RL cells): more efficient than anti-CD20 mAb (i.e., Ofatumumab) at targeted delivery

Substance: KEFKRIVQRIKDFLRGGGGSRLFDKIRQVIRKFEKG [PEP#55]
- Delivery efficiency (T47D cells [1]): +++ (Same as LL37)
- killing of RT4V6 / cell viability (in words) (RT4V6 cells): strongly enhance ADC killing
- killing of OVCAR3 / cell viability (in words) (OVCAR3 cells): strongly enhance ADC killing

Substance: LLGDFFRKSKEKIGKEFKRIVQRIKDFLRNLVPRTESC [PEP#94]
- Delivery efficiency (T47D cells [1]): +++ (Same as LL37)

Substance: Labetuzumab [Anti-CEACAM5, Labetuzumab]
- Delivery efficiency of mAb (i.e., mAb) (LnCap): +
- Delivery enhancement (LnCap): YES
- Delivery enhancement (LnCap; listed as labetuzumab): significantly increases the delivery

Substance: KRIVQRIKDFL [PEP#60]
- Delivery efficiency (T47D cells [1]): +

Substance: EFKRIVQRIKDFLRNLVPRT [PEP#64]
- Delivery efficiency (T47D cells [1]): +
